Read-outs that look alike come from different tables or passages of the source.
Key:
[1] = test system: HCT116 cells; assay: ATPlite cell viability after drug treatment, HCT116 cells in cell-line or organoid culture media; assay type: cell-based; set-up: AUC 1st / AUC 2nd / AUC 3rd / AUC Average: unit not given here
Protocol: Advanced DMEM/F12+++ (hereinafter referred to as “Ad/DF+++”) was used to produce colorectal cancer organoids. Ad/DF+++ was refrigerated at 4° C. until use, and was used in a cold state during cell washing. Ad/DF+++ medium containing the reagents shown in Table 1 below along with Ad/DF 1× (Gibco) was prepared.
After preparing the Ad/DF+++ medium containing the above reagents, an appropriate amount of Matrigel (Corning #356231) was added so that the ratio between Matrigel and cells suspended in the Ad/DF+++ medium was 7:3. Then, the cells were plated on low attachment well plates at an appropriate density. The density and the type and number of well plates were determined according to the characteristics of each cell type. The medium was prepared according to the composition shown in Table 2 below, and the cells were cultured (expanded) until the required level was reached while the medium was replaced every 3 to 4 days.
If the organoids were expanded as needed for the experiment, the medium was carefully removed, taking care not to touch the Matrigel. The cells were separated from the Matrigel by pipetting about 20 times with 1 ml of cold Ad/DF+++. The cells in 1 to 4 wells per 6-well plate were collected in one 50 ml tube. If cells are collected from more than 4 wells into one tube, the Metrigel may not be washed properly. For this reason, the cells were placed in several tubes. Thereafter, Ad/DF+++ was poured to 20 to 50 ml of each tube, followed by centrifugation at 400 g for 3 minutes at 4° C. The cells were dissociated with 1 to 2 mL of TrypLE™ Express Enzyme (Gibco, 1264-013), transferred to low-attachment 24 well plates, and then treated with 10 μM of Y-27632. Next, the cells were cultured in a CO2 incubator for 5 minutes at 37° C. After pipetting about 20 times, whether the cells would be dissociated into single cells was checked by microscopic observation. If the cells were not dissociated into single cells, the culture under CO2 and pipetting processes were repeated. After the single cells were transferred into 15-ml tubes, Ad/DF+++ was filled to 10 to 15 ml of each tube, followed by centrifugation at 400 g at 4° C. for 3 minutes. After suspending the pellet in Ad/DF+++, the cells were counted and diluted with medium according to the required number of cells.
12 hours after seeding in Experimental Example 1-2 above, the medium was changed with the medium shown in Table 3 below, followed by culturing to produce organoids.
(§1) Four hours after the medium change, the cells were treated with oxaliplatin, 5-FU, Irinotecan, and folinic acid. Five days after drug treatment, intracellular ATP expression was determined using the ATPlite assay kit (PerkinElmer), and the data were expressed in terms of cell viability, IC50, and AUC.
(§2) As the standard for confirming that cells are sensitive to the drug, the response of the cells to the drug was assumed to be 100%, and the luminescence value of surviving cells after drug treatment was analyzed and compared with the quantified drug response value.
(§3) Based on the assumption that the factor that increases the resistance of the organoids to oxaliplatin is an activator or inhibitor that changes the phenotype, the organoids prepared by excluding some or all of activators and inhibitors as shown in Table 4 below were treated with oxaliplatin.
In order to identify the factors that reduce the resistance to oxaliplatin of the Ex2 organoid, activators or inhibitors that change the phenotype were added one by one to the Ex2 organoid composition, thus producing organoids as shown in Table 8 below. Then, it was checked whether the produced organoids had increased resistance to oxaliplatin.

[2] = test system: Total Cell Line; assay: Average oxaliplatin AUC over all colorectal cancer cell lines; assay type: cell-based
Protocol: as §1, §2, §3
In order to confirm reduced resistance to oxaliplatin, ECT116, RKO, SW620, and LS147T cell lines, which are highly sensitive to oxaliplatin, and HT29, HTC15, CoLo205, and Lovo cell lines, which are low sensitive to oxaliplatin, were used.
When the above results were combined with the results shown by cell lines with high sensitivity to oxaliplatin and cell lines with low sensitivity to oxaliplatin, the result data shown in FIGS. 23 and 24 and Tables 5 to 7 below were obtained.

O=C1[O][Pt]2([NH][C@@H]3CCCC[C@H]3[NH]2)[O]C1=O [oxaliplatin]
AUC value, Ex2 compared with Ex1 ([1]; HCT116, FIG. 3): significantly lower AUC values than those of Ex1
AUC value, Ex3 and Ex4 compared with Ex1 ([1]; HCT116, FIG. 3): lower AUC values than Ex1
IC50 value, Ex2 compared with Ex1 ([1]; HCT116, FIG. 4): similarly lowered in Ex2 compared to Ex1
cell viability versus oxaliplatin concentration ([1]; HCT116, McCoys control, Ex1, Ex2, FIG. 5): similarly lowered in the control (McCoys) HCT116 cells and the cells cultured under the organoid culture conditions of Ex2
AUC 1st ([1]; HCT116 cell line in McCoys (control), 1st): 312.3
IC50 ([1]; HCT116 cell line in McCoys (control), 1st, read-out: IC50 (μM) 1st): 24.1 µM
AUC 2nd ([1]; HCT116 cell line in McCoys (control), 2nd): 278.4
IC50 ([1]; HCT116 cell line in McCoys (control), 2nd, read-out: IC50 (μM) 2nd): 10.7 µM
AUC 3rd ([1]; HCT116 cell line in McCoys (control), 3rd): 307.3
IC50 ([1]; HCT116 cell line in McCoys (control), 3rd, read-out: IC50 (μM) 3rd): 28.8 µM
AUC Average ([1]; HCT116 cell line in McCoys (control), average): 299.3
IC50 ([1]; HCT116 cell line in McCoys (control), average, read-out: IC50 (μM) Average): 21.2 µM
AUC 1st ([1]; HCT116 in Ex1 (all inhibitors and activators), 1st): 379.7
IC50 ([1]; HCT116 in Ex1 (all inhibitors and activators), 1st, read-out: IC50 (μM) 1st): 133 µM
AUC 2nd ([1]; HCT116 in Ex1, 2nd): 379.9
IC50 ([1]; HCT116 in Ex1, 2nd, read-out: IC50 (μM) 2nd): 98 µM
AUC 3rd ([1]; HCT116 in Ex1, 3rd): 390.0
IC50 ([1]; HCT116 in Ex1, 3rd, read-out: IC50 (μM) 3rd): 167 µM
AUC Average ([1]; HCT116 in Ex1, average): 383.2
IC50 ([1]; HCT116 in Ex1, average, read-out: IC50 (μM) Average): 133 µM
AUC 1st ([1]; HCT116 in Ex2 (no inhibitors, no activators), 1st): 319.8
IC50 ([1]; HCT116 in Ex2 (no inhibitors, no activators), 1st, read-out: IC50 (μM) 1st): 27.8 µM
AUC 1st ([1]; HCT116 in Ex2-1 (Ex2 + A83-01 500 nM), 1st): 328.0
IC50 ([1]; HCT116 in Ex2-1 (Ex2 + A83-01 500 nM), 1st, read-out: IC50 (μM) 1st): 46 µM
AUC 2nd ([1]; HCT116 in Ex2-1, 2nd): 341.6
IC50 ([1]; HCT116 in Ex2-1, 2nd, read-out: IC50 (μM) 2nd): 52.2 µM
AUC 3rd ([1]; HCT116 in Ex2-1, 3rd): 342.0
IC50 ([1]; HCT116 in Ex2-1, 3rd, read-out: IC50 (μM) 3rd): 81.8 µM
AUC Average ([1]; HCT116 in Ex2-1, average): 337.2
IC50 ([1]; HCT116 in Ex2-1, average, read-out: IC50 (μM) Average): 60 µM
AUC 1st ([1]; HCT116 in Ex2-2 (Ex2 + Y-27632 10 μM), 1st): 284.9
IC50 ([1]; HCT116 in Ex2-2 (Ex2 + Y-27632 10 μM), 1st, read-out: IC50 (μM) 1st): 13 µM
AUC 2nd ([1]; HCT116 in Ex2-2, 2nd): 320.5
IC50 ([1]; HCT116 in Ex2-2, 2nd, read-out: IC50 (μM) 2nd): 38.4 µM
AUC 3rd ([1]; HCT116 in Ex2-2, 3rd): 301.0
IC50 ([1]; HCT116 in Ex2-2, 3rd, read-out: IC50 (μM) 3rd): 16 µM
AUC Average ([1]; HCT116 in Ex2-2, average): 302.1
IC50 ([1]; HCT116 in Ex2-2, average, read-out: IC50 (μM) Average): 22.5 µM
AUC 1st ([1]; HCT116 in Ex2-3 (Ex2 + SB 202190 10 μM), 1st): 306.6
IC50 ([1]; HCT116 in Ex2-3 (Ex2 + SB 202190 10 μM), 1st, read-out: IC50 (μM) 1st): 30.2 µM
AUC 2nd ([1]; HCT116 in Ex2-3, 2nd): 343.3
IC50 ([1]; HCT116 in Ex2-3, 2nd, read-out: IC50 (μM) 2nd): 63.4 µM
AUC 3rd ([1]; HCT116 in Ex2-3, 3rd): 287.0
IC50 ([1]; HCT116 in Ex2-3, 3rd, read-out: IC50 (μM) 3rd): 18.2 µM
AUC Average ([1]; HCT116 in Ex2-3, average): 312.3
IC50 ([1]; HCT116 in Ex2-3, average, read-out: IC50 (μM) Average): 37.3 µM
AUC 1st ([1]; HCT116 in Ex2-4 (Ex2 + Wnt3a), 1st): 258.2
IC50 ([1]; HCT116 in Ex2-4 (Ex2 + Wnt3a), 1st, read-out: IC50 (μM) 1st): 5.9 µM
AUC 2nd ([1]; HCT116 in Ex2-4, 2nd): 304.7
IC50 ([1]; HCT116 in Ex2-4, 2nd, read-out: IC50 (μM) 2nd): 38.8 µM
AUC 3rd ([1]; HCT116 in Ex2-4, 3rd): 315.9
IC50 ([1]; HCT116 in Ex2-4, 3rd, read-out: IC50 (μM) 3rd): 26.9 µM
AUC Average ([1]; HCT116 in Ex2-4, average): 292.9
IC50 ([1]; HCT116 in Ex2-4, average, read-out: IC50 (μM) Average): 23.8 µM
AUC 1st ([1]; HCT116 in Ex2-5 (Ex2 + R-spondin 1 1 μg/ml), 1st): 317.5
IC50 ([1]; HCT116 in Ex2-5 (Ex2 + R-spondin 1 1 μg/ml), 1st, read-out: IC50 (μM) 1st): 34 µM
AUC 2nd ([1]; HCT116 in Ex2-5, 2nd): 322.7
IC50 ([1]; HCT116 in Ex2-5, 2nd, read-out: IC50 (μM) 2nd): 43 µM
AUC 3rd ([1]; HCT116 in Ex2-5, 3rd): 351.6
IC50 ([1]; HCT116 in Ex2-5, 3rd, read-out: IC50 (μM) 3rd): 103 µM
AUC Average ([1]; HCT116 in Ex2-5, average): 330.6
IC50 ([1]; HCT116 in Ex2-5, average, read-out: IC50 (μM) Average): 60 µM
AUC 1st ([1]; HCT116 in Ex2-6 (Ex2 + Noggin 100 ng/ml), 1st): 264.3
IC50 ([1]; HCT116 in Ex2-6 (Ex2 + Noggin 100 ng/ml), 1st, read-out: IC50 (μM) 1st): 7.8 µM
AUC 2nd ([1]; HCT116 in Ex2-6, 2nd): 309.4
IC50 ([1]; HCT116 in Ex2-6, 2nd, read-out: IC50 (μM) 2nd): 41.4 µM
AUC 3rd ([1]; HCT116 in Ex2-6, 3rd): 292.6
IC50 ([1]; HCT116 in Ex2-6, 3rd, read-out: IC50 (μM) 3rd): 22.1 µM
AUC Average ([1]; HCT116 in Ex2-6, average): 288.8
IC50 ([1]; HCT116 in Ex2-6, average, read-out: IC50 (μM) Average): 23.8 µM
AUC 2nd ([1]; HCT116 in Ex2, 2nd): 324.8
IC50 ([1]; HCT116 in Ex2, 2nd, read-out: IC50 (μM) 2nd): 46.1 µM
AUC 3rd ([1]; HCT116 in Ex2, 3rd): 331.7
IC50 ([1]; HCT116 in Ex2, 3rd, read-out: IC50 (μM) 3rd): 40.5 µM
AUC Average ([1]; HCT116 in Ex2, average): 325.4
IC50 ([1]; HCT116 in Ex2, average, read-out: IC50 (μM) Average): 38.1 µM
drug response, colorectal cancer cell line compared with cells under Ex1 organoid culture conditions ([1]; HCT-116, FIG. 2): increased resistance under the organoid culture conditions
drug responsiveness, colorectal cancer cell line compared with organoids cultured in Ex1 and Ex2 ([1]; HCT-116, FIG. 25): oxaliplatin resistance decreased in Ex2
EX1_AUC ([2]; average over total cell lines, Ex1 medium): 408.05
EX2_AUC ([2]; average over total cell lines, Ex2 medium): 384.32
normal_AUC ([2]; average over total cell lines, normal cell-line culture): 330.83
EX1 − EX2 (AUC difference) ([2]; total cell lines): 23.73

— patent US20250102494A1, “COMPOSITION FOR PREDICTING OXALIPLATIN DRUG EFFICACY, AND USE THEREOF” (SAMSUNG LIFE PUBLIC WELFARE FOUNDATION, priority 2022, published 2025)
